The results in this text go back to PubChem BioAssay (NCI).

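Tested at 5 concentrations; 48 h exposure; 96-well plates; endpoints linearly interpolated, else capped at highest concentration. GI50: concentration for 50% inhibition of growth. TGI: concentration producing complete growth inhibition.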 Where only a bound is given, the exact number is not on record here.

Among the test systems are RXF 393 renal; T-47D breast; A498 renal; UACC-62 melanoma; ACHN renal; 786-0 renal; U251 CNS; MOLT-4 leukemia; NCI-H522 lung; LOX IMVI melanoma.
Holding throughout (test): NCI tumour cell line growth inhibition, 48 h

As for `COc1ccc(C(=O)Cn2c(C(=O)c3ccc(Cl)cc3)nc(-c3ccccc3)c2-c2ccccc2)cc1`, the GI50 in the test on RXF 393 renal was 23.6 µM; in the test on T-47D breast it was over 100 µM; in the test with A498 renal, 34.9 µM; in the test on UACC-62 melanoma, over 100 µM; in the test on ACHN renal, 34.3 µM; with 786-0 renal it was 79.6 µM. Besides, the GI50 was 73 µM with U251 CNS, over 100 µM in the test with MOLT-4 leukemia, over 100 µM in the test on NCI-H522 lung and over 100 µM with LOX IMVI melanoma. Further, the TGI with RXF 393 renal, with T-47D breast, with A498 renal, in the test with UACC-62 melanoma, in the test with ACHN renal and in the test with 786-0 renal was over 100 µM throughout. Besides, the TGI in the test on U251 CNS, in the test with MOLT-4 leukemia, with NCI-H522 lung and in the test on LOX IMVI melanoma was over 100 µM in each case.

For the compound `C=C1C(=O)O[C@@H]2C[C@@H](C)[C@@H]3C=CC(=O)[C@@]3(C)[C@@H](OC(=O)CCCC(=O)O[C@H]3[C@@H]4C(=C)C(=O)O[C@@H]4C[C@@H](C)[C@@H]4C=CC(=O)[C@]43C)[C@H]12`, the TGI with RXF 393 renal worked out at 0.047 µM; in the test with T-47D breast, 0.0666 µM; in the test with A498 renal it was 0.546 µM; in the test with UACC-62 melanoma, 0.103 µM; with ACHN renal, 0.11 µM; with 786-0 renal, 0.0448 µM. Moreover, the TGI with U251 CNS was 0.377 µM; in the test on MOLT-4 leukemia it was 0.0634 µM; in the test on NCI-H522 lung, 0.0253 µM; with LOX IMVI melanoma, 0.152 µM.

As for `OC[C@H]1N[C@H](CO)[C@@H](O)[C@H]1O`, the TGI with RXF 393 renal, in the test on T-47D breast, with A498 renal, in the test with UACC-62 melanoma, with ACHN renal and in the test on 786-0 renal was over 100 µM in each case. Further, the TGI with U251 CNS, in the test on MOLT-4 leukemia, in the test with NCI-H522 lung and with LOX IMVI melanoma was over 100 µM throughout.

On to `O=C1C=C(NCCc2ccccc2)c2ccccc2C1=O`, for which the TGI with RXF 393 renal came out at 20.4 µM; in the test with T-47D breast, 40.1 µM; with A498 renal it was 10.1 µM; in the test with UACC-62 melanoma, 3.34 µM; with ACHN renal, 12.2 µM; with 786-0 renal it was 16.6 µM. Moreover, the TGI is 16.1 µM in the test with U251 CNS, 64.8 µM in the test on MOLT-4 leukemia, 4.41 µM in the test with NCI-H522 lung and 3.37 µM in the test on LOX IMVI melanoma.

With `O=C(O)CCN1C(=S)CSC1=S`, the TGI with RXF 393 renal, in the test with T-47D breast, with A498 renal, with UACC-62 melanoma, in the test with ACHN renal and in the test with 786-0 renal was over 100 µM throughout. For the same compound, the TGI in the test on U251 CNS, in the test on MOLT-4 leukemia, in the test on NCI-H522 lung and in the test on LOX IMVI melanoma was over 100 µM each time.

Turning to `CC(C)(C)OC(=O)NCCCCCCCCCCCCn1c2c(c3ccccc3c1=O)C(=O)c1ccccc1-2`, the GI50 with RXF 393 renal was 17.8 µM; in the test on T-47D breast, over 100 µM; in the test with A498 renal it was 24.7 µM; in the test on UACC-62 melanoma, 27.4 µM; in the test on ACHN renal, 21.1 µM; with 786-0 renal it was 18.3 µM. For the same compound, the GI50 in the test on U251 CNS was 36 µM; with MOLT-4 leukemia it was 49.4 µM; in the test on NCI-H522 lung, 45 µM; in the test on LOX IMVI melanoma, over 100 µM. Also, the TGI is 49.2 µM with RXF 393 renal; over 100 µM in the test with T-47D breast; 68.7 µM in the test with A498 renal; over 100 µM with UACC-62 melanoma; 54.7 µM in the test on ACHN renal; 50.6 µM in the test on 786-0 renal. Moreover, the TGI in the test with U251 CNS, in the test on MOLT-4 leukemia, with NCI-H522 lung and in the test with LOX IMVI melanoma was over 100 µM throughout.

As to `C=C(CN1CCc2ccccc2C1)c1ccc(CCCC(=O)Nc2ccccc2N)cc1`, the GI50 in the test with RXF 393 renal was 17.1 µM; in the test on T-47D breast, 11.2 µM; with A498 renal, 12.6 µM; in the test on UACC-62 melanoma it was 15.1 µM; in the test on ACHN renal it was 25.9 µM; with 786-0 renal, 12.1 µM. Moreover, the GI50 with U251 CNS was 18.4 µM; with MOLT-4 leukemia, 1.28 µM; in the test with NCI-H522 lung it was 1.92 µM; in the test on LOX IMVI melanoma, 9.15 µM. The TGI in the test with RXF 393 renal is 35.7 µM; in the test with T-47D breast, 59.3 µM; with A498 renal it was 26.1 µM; with UACC-62 melanoma, 30.8 µM; in the test on ACHN renal it was over 100 µM; in the test on 786-0 renal, 28.2 µM. Moreover, the TGI is 44.5 µM with U251 CNS, 15.3 µM in the test on MOLT-4 leukemia, 7.15 µM in the test on NCI-H522 lung and 21.7 µM in the test with LOX IMVI melanoma.

On to `CN(CCOc1ccc(NS(C)(=O)=O)cc1)CCc1ccc(NS(C)(=O)=O)cc1`, for which the GI50 in the test on RXF 393 renal is over 100 µM; with T-47D breast, over 100 µM; in the test on A498 renal, 96 µM; with UACC-62 melanoma, over 100 µM; in the test with ACHN renal it was over 100 µM; in the test on 786-0 renal, over 100 µM. Moreover, the GI50 with U251 CNS, in the test on MOLT-4 leukemia, in the test on NCI-H522 lung and in the test on LOX IMVI melanoma was over 100 µM each time. The TGI with RXF 393 renal, with T-47D breast, with A498 renal, with UACC-62 melanoma, in the test on ACHN renal and in the test with 786-0 renal was over 100 µM in each case. Moreover, the TGI in the test on U251 CNS, in the test on MOLT-4 leukemia, in the test with NCI-H522 lung and in the test with LOX IMVI melanoma was over 100 µM each time.
